# In patent publication US20190388364A1, “[…] A LOCAL […]” (GRÜNENTHAL GMBH, priority 2017, published 2019):
# System: guinea pig skin twitch response
# Assay: guinea pig skin test (skin twitch response, local anesthetic effect)
# Assay type: in vivo
# Details: for Stimuli per twitch response (means ± s.e.m.): max 20 stimuli; for number of animals with abrogated twitch response (max. effect): no twitch response after 20 stimuli
# Experimental: The local anesthetic effects of Tapentadol were studied in a guinea pig skin test.
# Animals: Male Pirbright White guinea pigs from a commercial breeder (ca. 400 g body weights) were used for the study. The animals were housed under standard conditions: room temperature […], rel. air changes per hour, air movement <0.2 m/sec, light/dark rhythm (06.00-18.00 h light, 18.00-06.00 h dark). The animals had access to water ad libitum and to an exclusive diet of “Herilan RM 204” (Eggersmann Company, Rinteln/Germany). Before the experiment they lived in groups of 5-8 animals in type IV Makrolone cages (Ebeco Company, Castrop-Rauxel/Germany). There were at least five days between delivery of the animals and the test day.
# Tapentadol (test compound was) dissolved in 0.9% NaCl solution. Application route: intradermal application. Application volume: 0.1 ml per application site. Concentrations: 0.05/0.01/0.3/0.5%.
# Application route: intradermal application. Application volume: 0.1 ml per application site. Concentrations: 0.1/0.3/1.0.
# The experiments were performed according to a modified method originally described by Bülbring and Wajda (J Pharm Exp Ther 85: 78-84, 1945). After erasure of the back of the animals 0.1 ml of solutions of the test compounds or of vehicle (0.9% NaCl) were injected intradermally. There were 3 injection sites each on both flanks of the back with a craniocaudal distance between them of 1.5 cm. A twitch response of the skin musculature was provoked by contact of these sites with the tip of an injection cannula. The number of the stimuli needed to provoke a twitch response was registered. A maximum of 20 stimuli per site was allowed. […] Thereafter, solution with different concentrations of the test compounds or vehicle were injected and the skin sensitivity was evaluated at 2, 5, 10, 15 and 20 min. The different test solutions were injected on both flanks of the back into the cranial, intermediate or caudal test site in a randomized order.
# Test parameter: Stimuli per twitch response.
# Each concentration of the test compounds was tested at 6-7 sites. The means±s.e.m. of stimuli that were necessary to induce a twitch response were calculated for the different times after application. In addition, number of tests with a complete abolition of skin sensitivity (i.e., no twitch response after 20 stimuli) was used to calculate an EC50-value (with 95% confidence limits) according to Litchfield and Wilcoxon.
# [1] = 0.1 wt.-% intradermal, 2 min after application
# [2] = 0.1 wt.-% intradermal, 5 min after application
# [3] = 0.1 wt.-% intradermal, 10 min after application
# [4] = 0.1 wt.-% intradermal, 15 min after application
# [5] = 0.1 wt.-% intradermal, 20 min after application
# [6] = 0.3 wt.-% intradermal, 2 min after application
# [7] = 0.3 wt.-% intradermal, 5 min after application
# [8] = 0.3 wt.-% intradermal, 10 min after application
# [9] = 0.3 wt.-% intradermal, 15 min after application
# [10] = 0.3 wt.-% intradermal, 20 min after application
compound,measurement,setting,value
"CC[C@@H](c1cccc(O)c1)[C@@H](C)CN(C)C [Tapentadol, (1R,2R)-3-(3-dimethylamino-1-ethyl-2-methyl-propyl)-phenol]",Stimuli per twitch response (means ± s.e.m.),"0.05 wt.-% intradermal, 0.1 ml per site, 2 min after application",6 ± 3
same,Stimuli per twitch response (means ± s.e.m.),"0.05 wt.-% intradermal, 5 min after application",1
same,Stimuli per twitch response (means ± s.e.m.),"0.05 wt.-% intradermal, 10 min after application",1
same,Stimuli per twitch response (means ± s.e.m.),"0.05 wt.-% intradermal, 15 min after application",1
same,Stimuli per twitch response (means ± s.e.m.),"0.05 wt.-% intradermal, 20 min after application",1
same,number of animals with abrogated twitch response (max. effect),0.05 wt.-% intradermal,1 of 7
same,Stimuli per twitch response (means ± s.e.m.),[1],12 ± 4
same,Stimuli per twitch response (means ± s.e.m.),[2],2 ± 1
same,Stimuli per twitch response (means ± s.e.m.),[3],1
same,Stimuli per twitch response (means ± s.e.m.),[4],1
same,Stimuli per twitch response (means ± s.e.m.),[5],1
same,number of animals with abrogated twitch response (max. effect),0.1 wt.-% intradermal,3 of 6
same,Stimuli per twitch response (means ± s.e.m.),[6],20
same,Stimuli per twitch response (means ± s.e.m.),[7],20
same,Stimuli per twitch response (means ± s.e.m.),[8],4 ± 3
same,Stimuli per twitch response (means ± s.e.m.),[9],2 ± 1
same,Stimuli per twitch response (means ± s.e.m.),[10],1
same,number of animals with abrogated twitch response (max. effect),0.3 wt.-% intradermal,7 of 7
same,Stimuli per twitch response (means ± s.e.m.),"0.5 wt.-% intradermal, 2 min after application",20
same,Stimuli per twitch response (means ± s.e.m.),"0.5 wt.-% intradermal, 5 min after application",20
same,Stimuli per twitch response (means ± s.e.m.),"0.5 wt.-% intradermal, 10 min after application",10 ± 3
same,Stimuli per twitch response (means ± s.e.m.),"0.5 wt.-% intradermal, 15 min after application",3 ± 2
same,Stimuli per twitch response (means ± s.e.m.),"0.5 wt.-% intradermal, 20 min after application",1
same,number of animals with abrogated twitch response (max. effect),0.5 wt.-% intradermal,7 of 7
same,time of maximum effect after application,"intradermal, 0.05 to 0.5%",2 min
same,local anesthetic effect at 20 min after application,"intradermal, up to the highest concentration (0.5%)",completely disappeared
COc1cccc(C2(O)CCCCC2CN(C)C)c1 (centres unmarked) [Tramadol],Stimuli per twitch response (means ± s.e.m.),[1],1
same,Stimuli per twitch response (means ± s.e.m.),[2],1
same,Stimuli per twitch response (means ± s.e.m.),[3],1
same,Stimuli per twitch response (means ± s.e.m.),[4],1
same,Stimuli per twitch response (means ± s.e.m.),[5],1
same,Stimuli per twitch response (means ± s.e.m.),[6],8 ± 3
same,Stimuli per twitch response (means ± s.e.m.),[7],6 ± 3
same,Stimuli per twitch response (means ± s.e.m.),[8],3 ± 2
same,Stimuli per twitch response (means ± s.e.m.),[9],3 ± 2
same,Stimuli per twitch response (means ± s.e.m.),[10],3 ± 2
same,Stimuli per twitch response (means ± s.e.m.),"1.0 wt.-% intradermal, 2 min after application",20
same,Stimuli per twitch response (means ± s.e.m.),"1.0 wt.-% intradermal, 5 min after application",20
same,Stimuli per twitch response (means ± s.e.m.),"1.0 wt.-% intradermal, 10 min after application",20
same,Stimuli per twitch response (means ± s.e.m.),"1.0 wt.-% intradermal, 15 min after application",15 ± 3
same,Stimuli per twitch response (means ± s.e.m.),"1.0 wt.-% intradermal, 20 min after application",14 ± 3
